# Test results taken from patent publication US11639345B2, “Methionine metabolic pathway inhibitors” (MIGAL—GALILEE RESEARCH INSTITUTE LTD., priority 2018, dated 2023).
# Legend:
# [1] = target: T1, CGS from Nicotiana tabacum (Nicotiana tabacum, UniProt Q9ZPL5); settings: Steegborn et al. (2001); cited from earlier work
# T1 sequence (Q9ZPL5 96-540 limits assumed): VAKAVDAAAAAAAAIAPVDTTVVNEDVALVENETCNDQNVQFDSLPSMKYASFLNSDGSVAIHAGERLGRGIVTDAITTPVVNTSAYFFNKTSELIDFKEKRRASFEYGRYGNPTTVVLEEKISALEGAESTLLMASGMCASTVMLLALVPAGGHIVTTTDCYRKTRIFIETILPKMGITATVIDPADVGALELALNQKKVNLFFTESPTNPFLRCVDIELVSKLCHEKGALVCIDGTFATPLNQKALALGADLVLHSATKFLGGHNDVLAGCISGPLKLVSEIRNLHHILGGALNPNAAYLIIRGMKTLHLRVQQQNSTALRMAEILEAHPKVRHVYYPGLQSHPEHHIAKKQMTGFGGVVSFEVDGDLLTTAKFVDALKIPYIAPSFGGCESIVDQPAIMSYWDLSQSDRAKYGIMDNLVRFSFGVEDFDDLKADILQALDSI
# Tobacco CGS [2] = target: T2, Tobacco CGS (Nicotiana tabacum, UniProt Q9ZPL5); experiment: Malachite Green Phosphate assay of direct CGS activity; type: biochemical; design: 6xHIS (cleaved yes); GB1 solubility tag (cleaved yes); made in house; host or cells: E. coli BL-21; settings: 2 h; 50 μM compound, 1 μM CGS, two-hour incubation at 25° C.; read-out: Malachite Green Phosphate Assay (% to DMSO, 50 μM)
# T2 sequence (Q9ZPL5 79-540): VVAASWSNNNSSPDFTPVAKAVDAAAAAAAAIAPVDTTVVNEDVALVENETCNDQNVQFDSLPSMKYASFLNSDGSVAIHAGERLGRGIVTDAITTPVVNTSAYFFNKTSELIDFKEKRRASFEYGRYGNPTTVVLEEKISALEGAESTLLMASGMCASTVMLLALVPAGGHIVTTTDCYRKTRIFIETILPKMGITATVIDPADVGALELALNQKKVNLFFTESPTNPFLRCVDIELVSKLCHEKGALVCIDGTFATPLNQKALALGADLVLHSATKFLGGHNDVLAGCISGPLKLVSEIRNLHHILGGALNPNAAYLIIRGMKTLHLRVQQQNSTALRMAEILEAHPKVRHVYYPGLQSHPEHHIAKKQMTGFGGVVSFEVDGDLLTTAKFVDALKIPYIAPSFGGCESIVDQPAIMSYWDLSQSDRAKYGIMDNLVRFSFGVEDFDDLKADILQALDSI
# Method: As discussed above, the first reaction in methionine biosynthesis in plants is catalyzed by the CGS enzyme. In this reaction, the formation of cystathionine is conducted by the γ-replacement of the phosphoryl substituent of O-phospho-homoserine by cysteine and consecutive release of an orthophosphate group.
# Expression of recombinant CGS was done by transforming the pET-11 vector containing the DNA sequence of Tobacco CGS with a 6xHIS tag and GB1 solubility tag followed by TEV cleavage site into BL-21 cells. These cells were cultured at 37° C. and optical density (OD)=0.8 protein at 600 nm, and the expression was induced by addition of 1 mM IPTG for 16 hours at 25° C. The protein was purified to homogeneity onto nickel column and cleaved by o/n dialysis with the TEV protease. A second nickel column was used to separate the cleaved CGS from the TEV and GB1 solubility tag.
# The direct activity of CGS was tested using the Malachite Green Phosphate Assay Kit (Sigma-Aldrich, cat # MAK307-1KT). It is a highly sensitive and robust experiment used to measure the release of free orthophosphate group based on quantification of the green-coloured complex formed between Malachite Green, molybdate, and free orthophosphate. The rapid colour formation from the reaction can be conveniently measured on a spectrophotometer via the absorbance at 620 nm.
# The assay mixture (100 μl) contained 50 mM MOPS—NaOH (pH 7.5), 150 mM NaCl, 0.1 mM PLP and 1 μM purified CGS. The compounds of the present invention were added at a final concentration of 50 μM and reactions were initiated by adding 2 mM cysteine and 3 mM O-phospho-L-homo-serine. After two-hour incubation at 25° C., 80 μL of each sample were transferred into a new 96 well-plate containing 20 μl of Malachite Green Reagent and incubated for additional 30 min at 25° C. Colour development was measured by a plate reader Tecan M200 (620 nm).
# Tobacco CGS [3] = target: T2, Tobacco CGS; experiment: Micro Scale Thermophoresis (MST) direct binding to CGS; design: 6xHIS (N, cleaved yes); GB1 solubility tag (N, cleaved yes); made in house; host or cells: E. coli BL21; settings: score 0-5; binding to labelled Tobacco CGS
# Method: The direct binding of the compounds of the embodiments to the CGS was tested by Micro Scale Thermophoresis (MST). In the MST assay, the CGS protein was labelled with a fluorophore, the samples were heated, and changes in fluorescence were measured as a function of the ligand concentration. In the MST assay, similar to the expression and purification described above, the recombinant Tobacco CGS protein was expressed in E. coli BL21 cells and purified to homogeneity. For that particular purpose, the pET-11 vector containing the DNA sequence of Tobacco CGS with an N-terminus […] tag followed by a TEV-cleavable GB1 solubility tag was cloned and transformed into the bacteria cells. Cells were cultured to OD=0.8, and protein expression was induced by the addition of 1 mM IPTG. The cells were cultured for additional 16 hours temperature 25° C. Following cellular lysis, the soluble fraction was passed through the nickel column and the bound HIS-tagged protein was eluted by 300 mM imidazole. Then, the tags […] and GB1 were cleaved in dialysis o/n and the mixtures passed again through the nickel column to separate the CGS from the TEV and HIS-GB1 constructs. As a final step the CGS was run on S75 size exclusion chromatography. Thus, the MST assay was performed to measure the biding of the compounds to the CGS protein. For this purpose, the CGS was labelled with commercially available amine reactive fluorophore (Cat # MO-[…], NanoTemper) according to the manufacture instructions. The MST binding curves were then measured using the Monolith NT.115 apparatus by incubating the labelled protein with the indicated compounds in a dose-response manner.
# Arabidopsis thaliana = Arabidopsis thaliana root growth inhibition; type: in vivo; settings: 168 h, root length ratio vs DMSO control, 50 μM compound, lower values indicate shorter root, larger effect, read-out: Arabidopsis (relative to DMSO)
# Method: Finally, FIGS. 7a-7o are the photos of the Arabidopsis thaliana plants and the inhibition of their roots growth by the compounds of the present invention. These experiments were conducted as follows. Seeds were washed with 70% ethanol for one minute and then with sterile water. Sterilisation was performed with 50% bleaching solution (3%) and 0.2% Triton x-100 for ten minutes followed by a five-time wash with sterile water. The seeds were placed in six well-plates with half Murashige and Skoog medium (MS; Duchefa, Haarlem, Netherlands), containing 1% sucrose (w/v), pH 5.8. The plates with Arabidopsis thaliana seeds were placed at 4° C. for two days and then transferred for seven days to growth chamber (22±2° C.) at day/light cycles of 16/8 h. The plates were placed vertically. In each plate, a control including 0.1% DMSO in the medium was added. The compounds of the present invention were tested for their herbicidal efficiency by diluting 1000 times a 50 mM stock in DMSO leading to a final concentration of 50 μM with 0.1% DMSO.
# In Tables 1, 2 and 4 above, Arabidopsis root length was measured after addition of 50-μM compound compared with the negative control (DMSO) treatment. Length values indicate the ratio between non-treated plates ([…]) and the length after the addition of 50 uM of each compound. Lower values indicate shorter root length, and consequently, larger effect.
# [4] = tested on: E. coli lacking the endogenic MetB CGS gene, transformed to express the CGS from Arabidopsis; experiment: Growth of engineered E. coli expressing Arabidopsis CGS in M9 minimal media, with and without methionine; type: cell-based; settings: for E. coli Assay LE395 (0-5): score 0-5, growth of E. coli with Arabidopsis CGS gene in M9 minimal media; for E. coli specificity (MOA): score, growth with vs without external methionine (40 mg/L)
# Method: In addition to the direct binding evaluation, specific assay to test the compounds activity and specificity were also developed. In this assay, E. coli cells, lacking the endogenic MetB CGS gene and transformed to express the CGS from Arabidopsis, were used. These cells were grown on M9 minimal media with and without external methionine supplemented to the cells, in the presence of the compounds of the embodiments. These selected compounds of the embodiments, capable of inhibiting the cell growth on M9, but incapable of affecting the cell growth when supplemented with methionine, were validated as methionine-pathway specific inhibitors.
# In this assay, Methionine auxotroph E. coli mutant was transformed with PQE-30 vector containing the Arabidopsis CGS gene as previously described in Yael Hacham et al., Plant Physiol., February 2002, 128(2): 454-462. In order to test the effect of the small molecule inhibitors on the CGS and methionine pathway, growth curves of the E. coli in M9 minimal media with […] were measured with and without the addition of external methionine (40 mg/L) in the presence of variable compound concentrations. E. coli growth curves were measured by following the optical density at 600 nm of bacteria in 96 well-plate placed within Tecan M200 plate reader in orbital shaking mode at 37° C. The slope of each curve was estimated using the ‘linest’ function in Excel.
# Roquette = Roquette assay spray; type: in vivo
Structure (SMILES),affinity to the CGS [1],remaining activity at 50 µM (Tobacco CGS [2]),MST Tobacco (0-5) (Tobacco CGS [3]),TEV (relative to DMSO) (TEV (relative to DMSO)),activity at 50 µM (Arabidopsis thaliana),E. coli Assay LE395 (0-5) [4],E. coli specificity (MOA) [4],Roquette assay spray (single average) (Roquette),Roquette assay spray (twice average) (Roquette)
"O=C(O)CSc1nc(-c2cccc(Cl)c2)no1 [5-carboxymethylthio-3-(3′-chlorophenyl)-1,2,4-oxadiazol]",highest affinity to the CGS reported so far,,,,,,,,
Cc1cc(O)nc(C(=O)Nc2cccc(-c3nc(C)cc(O)n3)c2)c1 [IML-64],,15.2%,4,0.65,20%,2,4,1.0,2.0
COc1cccc(C(=O)Nc2cccc(-c3cn(Cc4ccccc4)nn3)c2)c1 [IML-69],,30%,5,0.71,22%,,,1.0,2.0
CCc1nc(-c2cccc(NC(=O)c3cccc(OC)c3)c2)no1 [IML-215],,12.8%,2,0.39,6%,3,3,1.0,2.0
CCc1noc(-c2cccc(NC(=O)c3cccc(OC)c3)c2)n1 [IML-216],,,2,0.57,20%,3,5,2.0,2.0
O=C(Nc1cccc(-c2csc(Nc3ccc(C(=O)O)c(O)c3)n2)c1)c1ccccc1 [IML-219],,28.3%,4,,,1,5,,
COc1ccc(Cc2nc(-c3cccc(NC(=O)c4cccc(F)c4)c3)no2)cc1 [IML-220],,10.8%,,,,3,5,,
CCc1nc(-c2cc(CC(=O)O)cc(NC(=O)c3cccc(OC)c3)c2)no1 [IML-228],,27.4%,,,,,,,
CCc1nc(-c2cncc(NC(=O)c3cccc(OC)c3)c2)no1 [IML-229],,19.6%,,0.44,10%,,,,
CCn1cc(-c2cccc(NC(=O)c3cccc(OC)c3)c2)nn1 [IML-230],,21.7%,,,29%,,,,1.0
Cc1cc(O)nc(-c2cccc(NC(=O)c3c(O)cccc3F)c2)n1 [IMS-220],,15.9%,3,,,4,5,,
